Results taken from US10100054B1, “Pyrido[2,3-d]pyrimidines as anticancer agents” (KING SAUD UNIVERSITY, priority 2018, dated 2018).

Legend:
HepG2 = assay: In vitro anticancer screening, MTT cell viability; type: cell-based; details: Homo sapiens; for inhibition at 100 µM: HepG2, 100 μM dose, read-out: Growth inhibition (%); for IC50: HepG2, MTT, 48 h
Description: (§1) Anticancer activity screening was adopted against five cancer cell lines, viz., HepG2, PC-3, HCT116, MCF-7, A549, and doxorubicin was used as a reference standard at 100 micromole.
(§2) Cell viability was assessed by the mitochondrial dependent reduction of yellow MTT (3-(4,5-dimethylthiazol-2-yl)-2,5-diphenyl tetrazolium bromide) to purple formazan. All the following procedures were done in a sterile area using a laminar air flow cabinet of class II biosafety (Baker, SG403INT, Sanford, Me., USA). Cells were suspended in DMEM medium for PC-3, and RPMI1640 in case of A-549, MCF-7, HCT-116 and HePG-2. The media are supplemented with 1% antibiotic antimycotic mixture (10,000 U ml^−1 Potassium Penicillin, 10,000 μg ml^−1 Streptomycin Sulfate and 25 μg ml^−1 Amphotericin B), 1% L-glutamine and 10% fetal bovine serum (complete growth medium) and kept at […] under 5% CO2. Cells were batch cultured for 10 days, then seeded at a concentration of 10×10^3 cells/well in fresh complete growth medium in 96-well Microtiter plastic plates at 37° C. for 24 h under 5% CO2 and a humid atmosphere using a water jacketed carbon dioxide incubator (Sheldon, TC2323, Cornelius, Oreg., USA). Media was aspirated, fresh medium (without serum) was added, and cells were incubated either alone (negative control) or with serial dilutions of each sample. After 48 h of incubation, the medium was aspirated, 40 μl MTT salt (2.5 μg ml^−1) was added to each well and incubated for a further four hours at 37° C. under 5% CO2. To stop the reaction and dissolving the formed crystals, 200 μl of 10% sodium dodecyl sulfate (SDS) in deionized water was added to each well and incubated overnight at 37° C. The absorbance was then measured using a microplate multi-well reader ELISA reader (Bio-Rad Laboratories Inc., model 3350, Hercules, Calif., USA) at 595 nm and a reference wavelength of 620 nm. A statistical significance was tested between samples and negative control (cells with vehicle) using independent t-test by SPSS 11 program. DMSO is the vehicle used for dissolution of plant extracts, and its final concentration in the cells was less than 0.2%. The percentage of change in viability was calculated according to the formula: (average absorbance of extract/average absorbance of negative control)−1)×100. A probit analysis was carried for IC50 determination using SPSS 11 program.

A549 = assay: In vitro anticancer screening, MTT cell viability; type: cell-based; details: Homo sapiens; for inhibition at 100 µM: A549, 100 μM dose, read-out: Growth inhibition (%)
Description: as §1, §2

PC3 = assay: In vitro anticancer screening, MTT cell viability; type: cell-based; details: Homo sapiens, PC-3; for inhibition at 100 µM: PC3, 100 μM dose, read-out: Growth inhibition (%); for IC50: PC3, MTT, 48 h
Description: as §1, §2

HCT116 = assay: In vitro anticancer screening, MTT cell viability; type: cell-based; details: Homo sapiens, HCT-116; for inhibition at 100 µM: HCT116, 100 μM dose, read-out: Growth inhibition (%); for IC50: HCT116, MTT, 48 h
Description: as §1, §2

MCF7 = assay: In vitro anticancer screening, MTT cell viability; type: cell-based; details: Homo sapiens; for inhibition at 100 µM: MCF7, 100 μM dose, read-out: Growth inhibition (%)
Description: as §1, §2

EGFR = EGFR (Homo sapiens, UniProt P00533); assay: Kinase screening (radiometric or ADP-Glo assay); type: biochemical
Chain of EGFR (P00533 25-1210, species assumed): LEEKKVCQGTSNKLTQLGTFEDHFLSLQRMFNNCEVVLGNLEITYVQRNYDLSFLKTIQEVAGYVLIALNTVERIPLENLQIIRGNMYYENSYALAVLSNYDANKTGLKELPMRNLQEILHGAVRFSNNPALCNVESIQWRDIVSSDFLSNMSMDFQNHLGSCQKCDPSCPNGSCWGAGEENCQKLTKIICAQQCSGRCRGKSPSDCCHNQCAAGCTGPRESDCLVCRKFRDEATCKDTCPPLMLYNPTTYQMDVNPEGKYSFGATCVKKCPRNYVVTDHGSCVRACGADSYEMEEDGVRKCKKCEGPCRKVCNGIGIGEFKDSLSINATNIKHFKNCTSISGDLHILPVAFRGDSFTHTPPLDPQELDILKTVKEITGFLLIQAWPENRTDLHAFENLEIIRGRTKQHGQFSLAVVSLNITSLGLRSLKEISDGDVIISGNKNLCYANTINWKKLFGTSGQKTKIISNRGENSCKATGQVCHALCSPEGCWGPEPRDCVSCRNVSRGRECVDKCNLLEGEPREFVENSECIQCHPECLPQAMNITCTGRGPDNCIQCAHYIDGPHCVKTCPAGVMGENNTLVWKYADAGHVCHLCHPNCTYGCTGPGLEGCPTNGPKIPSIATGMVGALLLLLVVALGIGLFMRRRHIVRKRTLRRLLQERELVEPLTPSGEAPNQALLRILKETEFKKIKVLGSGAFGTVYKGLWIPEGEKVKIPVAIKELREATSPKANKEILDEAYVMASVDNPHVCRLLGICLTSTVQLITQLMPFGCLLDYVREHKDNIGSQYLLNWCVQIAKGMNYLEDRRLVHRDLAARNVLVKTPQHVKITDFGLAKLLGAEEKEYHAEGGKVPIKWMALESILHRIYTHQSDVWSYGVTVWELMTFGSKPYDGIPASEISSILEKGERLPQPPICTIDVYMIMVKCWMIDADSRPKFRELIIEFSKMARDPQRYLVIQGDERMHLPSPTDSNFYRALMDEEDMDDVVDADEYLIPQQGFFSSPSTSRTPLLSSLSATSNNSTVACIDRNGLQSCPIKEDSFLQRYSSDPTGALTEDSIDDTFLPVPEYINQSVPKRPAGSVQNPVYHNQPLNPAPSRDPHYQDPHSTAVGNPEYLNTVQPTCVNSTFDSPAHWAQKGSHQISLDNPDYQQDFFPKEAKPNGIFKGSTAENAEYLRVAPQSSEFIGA
Description: (§3) The in vitro enzyme inhibition determination for the pyrido[2,3-d]pyrimidine derivatives was performed against a range of five protein kinases [PDGFR beta, EGFR, CDK4/Cyclin D1, PI3K (p100b/p85a), and PI3K (p100a/p85a)], including two concentrations (50 & 100 μM) in single measurements using the radiometric or ADP-Glo assay method. The intra-assay variability was determined to be less than 10%. Inhibition of target activity by the compound gives negative (−) values, while activation of target activity gives positive (+) value.
(§4) The pyrido[2,3-d]pyrimidine derivative 5 was supplied by Kinexus as a powder, and a stock solution was made in DMSO. The stock solution was then diluted to form an assay stock solution, and this was used to profile against the protein kinases and lipid protein kinases [PDGFR beta, EGFR, CDK4/Cyclin D1, PI3K (p100b/p85a), and PI3K (p100a/p85a)]. The assay condition for the protein kinase targets was optimized to yield acceptable enzymatic activity. In addition, the assays were optimized to give high signal-to-noise ratio.
(§5) For Protein Kinase (PK) Assays, a radioisotope assay format was used for profiling evaluation of PK targets and all assays were carried out in a designated radioactive working area. PK assays (in singlicate) were performed at ambient temperature for 30 min in a final volume of 25 μl according to the following assay reaction recipe: Component 1:5 μl of diluted active PK target (˜10-50 nM final concentration); Component 2:5 μl of stock solution of substrate (1-5 μg of peptide substrate); Component 3:5 μl of kinase assay buffer; Component 4:5 μl of compound (50 μM) or 10% DMSO; and Component 5:5 μl of ^33P-ATP (250 μM stock solution, 0.8 μCi).
(§6) The assay was initiated by the addition of ^33P-ATP, and the reaction mixture incubated at ambient temperature for 30 minutes. After the incubation period, the assay was terminated by spotting 10 μl of the reaction mixture onto Multiscreen phosphocellulose P81 plate. The Multiscreen phosphocellulose P81 plate was washed 3 times for approximately 15 min each in a 1% phosphoric acid solution. The radioactivity on the P81 plate was counted in the presence of scintillation fluid in a Trilux scintillation counter. Blank control was set up that included all the assay components except the addition of the appropriate substrate (replaced with equal volume of assay dilution buffer). The corrected activity for PK target was determined by removing the blank control value.

PI3K (p110a/p85a) = PI3K (p110a/p85a) (Homo sapiens, UniProt P42336); assay: Kinase screening (radiometric or ADP-Glo assay); type: biochemical; details: negative values: inhibition, positive values: activation of target activity
Chain of PI3K (p110a/p85a) (P42336 whole entry): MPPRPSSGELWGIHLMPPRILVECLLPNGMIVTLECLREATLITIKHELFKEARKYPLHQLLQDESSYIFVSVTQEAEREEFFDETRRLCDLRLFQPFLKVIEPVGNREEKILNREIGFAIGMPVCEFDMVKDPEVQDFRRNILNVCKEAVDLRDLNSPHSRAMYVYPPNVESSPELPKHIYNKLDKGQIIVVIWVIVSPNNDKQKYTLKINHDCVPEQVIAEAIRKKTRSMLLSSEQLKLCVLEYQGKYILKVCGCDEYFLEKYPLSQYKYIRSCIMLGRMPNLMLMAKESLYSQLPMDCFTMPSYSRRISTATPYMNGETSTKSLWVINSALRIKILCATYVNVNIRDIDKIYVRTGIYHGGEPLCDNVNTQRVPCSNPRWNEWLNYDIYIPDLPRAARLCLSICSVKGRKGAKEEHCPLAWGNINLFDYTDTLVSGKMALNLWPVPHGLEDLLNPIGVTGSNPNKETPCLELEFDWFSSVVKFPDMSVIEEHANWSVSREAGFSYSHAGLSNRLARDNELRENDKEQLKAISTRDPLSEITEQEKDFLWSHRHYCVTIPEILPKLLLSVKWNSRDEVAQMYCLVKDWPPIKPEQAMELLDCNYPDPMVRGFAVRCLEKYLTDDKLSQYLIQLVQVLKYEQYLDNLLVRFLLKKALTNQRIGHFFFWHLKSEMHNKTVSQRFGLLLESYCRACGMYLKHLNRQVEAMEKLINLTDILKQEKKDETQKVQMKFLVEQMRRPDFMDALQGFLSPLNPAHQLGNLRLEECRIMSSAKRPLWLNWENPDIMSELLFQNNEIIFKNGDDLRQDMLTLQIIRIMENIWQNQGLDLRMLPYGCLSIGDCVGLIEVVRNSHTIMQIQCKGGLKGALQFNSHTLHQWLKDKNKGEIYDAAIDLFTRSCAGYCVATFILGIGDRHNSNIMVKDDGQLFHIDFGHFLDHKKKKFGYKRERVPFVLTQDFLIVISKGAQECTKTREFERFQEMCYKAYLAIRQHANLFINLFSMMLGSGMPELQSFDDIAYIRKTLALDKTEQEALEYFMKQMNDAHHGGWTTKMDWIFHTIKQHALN
Chain of PI3K (p110a/p85a) (P27986 whole entry partner): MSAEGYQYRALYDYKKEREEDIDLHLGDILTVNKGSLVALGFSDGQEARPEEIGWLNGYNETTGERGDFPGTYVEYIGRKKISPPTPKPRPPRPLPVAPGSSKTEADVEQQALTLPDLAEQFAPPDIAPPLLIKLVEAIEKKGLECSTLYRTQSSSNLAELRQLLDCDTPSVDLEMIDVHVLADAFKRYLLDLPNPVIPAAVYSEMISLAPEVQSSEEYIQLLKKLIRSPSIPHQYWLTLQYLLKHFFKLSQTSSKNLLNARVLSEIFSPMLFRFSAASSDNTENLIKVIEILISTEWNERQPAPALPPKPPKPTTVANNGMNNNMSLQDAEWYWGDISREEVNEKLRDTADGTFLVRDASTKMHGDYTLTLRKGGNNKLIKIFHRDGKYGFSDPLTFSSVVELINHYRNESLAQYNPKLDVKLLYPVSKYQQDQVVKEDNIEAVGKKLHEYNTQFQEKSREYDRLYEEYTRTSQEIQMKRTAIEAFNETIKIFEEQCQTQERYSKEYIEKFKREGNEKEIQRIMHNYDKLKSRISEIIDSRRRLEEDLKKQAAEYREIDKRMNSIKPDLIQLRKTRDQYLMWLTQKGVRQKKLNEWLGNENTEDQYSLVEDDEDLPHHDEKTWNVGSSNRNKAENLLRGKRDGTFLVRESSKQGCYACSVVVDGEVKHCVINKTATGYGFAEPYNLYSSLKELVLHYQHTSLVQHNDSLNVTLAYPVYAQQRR
Description: as §3, §4, §5, §6

CDK4/CyclinD1 = CDK4/CyclinD1 (Homo sapiens, UniProt P11802); assay: Kinase screening (radiometric or ADP-Glo assay); type: biochemical
Chain of CDK4/CyclinD1 (P11802 whole entry, species assumed): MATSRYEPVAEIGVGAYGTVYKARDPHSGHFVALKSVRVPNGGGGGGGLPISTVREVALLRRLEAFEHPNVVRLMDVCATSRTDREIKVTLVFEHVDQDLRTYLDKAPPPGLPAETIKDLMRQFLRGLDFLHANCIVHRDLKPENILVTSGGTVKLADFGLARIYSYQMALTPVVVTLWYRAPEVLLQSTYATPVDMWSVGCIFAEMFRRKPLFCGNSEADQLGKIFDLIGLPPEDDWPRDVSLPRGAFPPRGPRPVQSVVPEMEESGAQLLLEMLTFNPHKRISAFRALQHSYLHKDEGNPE
Chain of CDK4/CyclinD1 (P24385 whole entry partner, species assumed): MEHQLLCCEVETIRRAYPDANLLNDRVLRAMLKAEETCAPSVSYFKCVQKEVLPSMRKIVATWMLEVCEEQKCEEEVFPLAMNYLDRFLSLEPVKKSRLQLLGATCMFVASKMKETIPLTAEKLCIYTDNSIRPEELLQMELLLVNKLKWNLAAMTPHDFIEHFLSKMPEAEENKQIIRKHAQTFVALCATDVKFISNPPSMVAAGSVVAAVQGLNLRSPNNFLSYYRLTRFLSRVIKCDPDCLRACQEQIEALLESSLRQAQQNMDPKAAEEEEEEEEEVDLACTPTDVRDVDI
Description: as §3, §4, §5, §6

PDGFRβ = PDGFRβ (Homo sapiens, UniProt P09619); assay: Kinase screening (radiometric or ADP-Glo assay); type: biochemical
Chain of PDGFRβ (P09619 33-1106, species assumed): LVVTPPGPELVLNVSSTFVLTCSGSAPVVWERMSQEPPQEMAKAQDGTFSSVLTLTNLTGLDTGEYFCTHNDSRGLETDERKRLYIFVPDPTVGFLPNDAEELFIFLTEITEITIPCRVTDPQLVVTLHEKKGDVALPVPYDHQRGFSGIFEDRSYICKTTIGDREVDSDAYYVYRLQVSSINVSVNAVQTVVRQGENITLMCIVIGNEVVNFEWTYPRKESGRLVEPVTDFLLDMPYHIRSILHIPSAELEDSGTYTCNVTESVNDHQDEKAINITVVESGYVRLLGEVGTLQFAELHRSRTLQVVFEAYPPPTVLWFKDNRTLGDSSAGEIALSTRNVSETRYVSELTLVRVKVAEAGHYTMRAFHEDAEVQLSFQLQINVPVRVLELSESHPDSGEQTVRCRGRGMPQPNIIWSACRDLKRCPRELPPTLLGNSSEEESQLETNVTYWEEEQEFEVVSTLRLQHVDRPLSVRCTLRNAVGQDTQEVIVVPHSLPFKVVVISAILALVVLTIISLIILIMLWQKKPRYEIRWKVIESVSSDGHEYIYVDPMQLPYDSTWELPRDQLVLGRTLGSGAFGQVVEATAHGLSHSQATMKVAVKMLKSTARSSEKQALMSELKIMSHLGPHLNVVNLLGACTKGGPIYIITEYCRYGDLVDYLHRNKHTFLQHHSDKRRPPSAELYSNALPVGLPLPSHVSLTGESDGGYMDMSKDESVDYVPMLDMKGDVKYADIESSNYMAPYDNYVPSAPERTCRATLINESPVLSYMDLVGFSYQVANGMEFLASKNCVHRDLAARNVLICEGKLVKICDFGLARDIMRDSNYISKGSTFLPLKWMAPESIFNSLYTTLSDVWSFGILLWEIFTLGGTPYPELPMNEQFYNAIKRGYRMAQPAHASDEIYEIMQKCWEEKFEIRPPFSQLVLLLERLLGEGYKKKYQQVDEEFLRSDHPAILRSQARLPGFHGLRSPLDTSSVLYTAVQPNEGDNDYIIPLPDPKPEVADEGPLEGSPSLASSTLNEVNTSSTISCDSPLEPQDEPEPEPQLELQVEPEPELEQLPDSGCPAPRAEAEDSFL
Description: as §3, §4, §5, §6

Structure (SMILES)	inhibition at 100 µM (HepG2)	IC50 (HepG2)	inhibition at 100 µM (A549)	inhibition at 100 µM (PC3)	IC50 (PC3)	inhibition at 100 µM (HCT116)	IC50 (HCT116)	inhibition at 100 µM (MCF7)	melting point	inhibition at 50 µM (EGFR; 50 μM)	inhibition at 100 µM (EGFR; 100 μM)	inhibition at 50 µM (PI3K (p110a/p85a); 50 μM)	inhibition at 100 µM (PI3K (p110a/p85a); 100 μM)	inhibition at 50 µM (CDK4/CyclinD1; 50 μM)	inhibition at 100 µM (CDK4/CyclinD1; 100 μM)	inhibition at 50 µM (PDGFRβ; 50 μM)	inhibition at 100 µM (PDGFRβ; 100 μM)	IC50 (A549; A549, MTT, 48 h)	IC50 (MCF7; MCF7, MTT, 48 h)
COc1cccc2c1C(=O)c1c(O)c3c(c(O)c1C2=O)C[C@@](O)(C(=O)CO)C[C@@H]3O[C@H]1C[C@H](N)[C@H](O)[C@H](C)O1 [doxorubicin, reference compound]	100%	0.6 µM	100%	100%	6.8 ± 1.2 µM	100%	12.8 ± 1 µM	91%	–	–	–	–	–	–	–	–	–	–	–
COc1cccc(-c2cc(-c3cccnc3)nc3nc(-n4[nH]c(C)cc4=O)[nH]c(=O)c23)c1 [Target]	100%	0.3 µM	99%	100%	5.3 ± 0.09 µM	99%	6.9 ± 0.5 µM	87%	> 300 °C	79%	85%	-178%	-185%	31%	73%	83%	90%	3.21 ± 0.4 µM	9.1 ± 2.1 µM
